Counter-ions that a name gives are not always drawn. Like-named read-outs stand apart in the source and are kept apart here.

The target of one data set is T1, human thrombin (Homo sapiens, UniProt P00734).
T1 construct: human thrombin (Sigma Chemical Company); purchased Sigma Chemical Company
In words: Measurement of inhibitory activity for thrombin (chromogenic substrate S-2238). The class given is biochemical. The protocol:
Measurement of inhibitory activity for thrombin
Five µl of dimethylsulfoxide solution of test compound, 375 µl of tris-hydrochloric acid buffer (pH 8.4) and 100 µl of 1 mM S-2238 (Daiichi Pure Chemicals) aqueous solution were mixed. Then 20 µl of 2.0 U/ml human thrombin (Sigma Chemical Company) in gelatin-glycine buffer was added and the mixture was incubated for 10 minutes at 37 °C. The reaction was terminated with the addition of 100 µl of 60 % acetic acid and absorbance (405 nm) was measured.
The group without the test compound was defined as control and the group without human thrombin was defined as blank. […]

Data set [1] has as its target T2, human activated blood coagulation factor X (Homo sapiens, UniProt P00742).
T2 construct: purchased Calbiochem Corporation
Description: Measurement of inhibitory activity for activated blood coagulation factor X (chromogenic substrate S-2222). Format: biochemical. The protocol: Measurement of inhibitory activity for activated blood coagulation factor X
Five µl of dimethylsulfoxide solution of test compound, 375 µl of tris-hydrochloric acid buffer (pH 8.4) and 100 µl of 1 mM S-2222 (Daiichi Pure Chemicals) aqueous solution were mixed. Then 20 µl of 0.6 U/ml human activated blood coagulation factor X (Calbiochem Corporation) in gelatin-glycine buffer was added and the mixture was incubated for 10 minutes at 37 °C. The reaction was terminated with the addition of 100 µl of 60 % acetic acid and absorbance (405 nm) was measured.
The group without the test compound was defined as control and the group without human activated blood coagulation factor X was defined as blank.

The next data set relates to normal human plasma. In words: Measurement of anticoagulation effects (plasma prothrombin time). The class given is biochemical. Conditions: CT2, concentration that prolonged the clotting time (prothrombin time) of control by 2 times. The protocol: Measurement of anticoagulation effects (plasma prothrombin time)
Two µl of dimethylsulfoxide solution of test compound which was put in a process tube was incubated at 37 °C, and 50 µl of normal human plasma (George King Bio-Medical Inc.) was mixed. One minute later, 100 µl of plasma prothrombin time reagent (Neoplastin Plus®, Boehringer Mannheim) was added into the mixture. Prothrombin time was measured with ST4 (Boehringer Mannheim).
The group without the test compound was defined as control. The concentration of test compound that prolonged the clotting time of control by 2 times (CT2) was obtained and this value was used as the index of anticoagulation activity.

Another data set concerns Male Wistar rats. In words: Acute toxicity test. The class given is in vivo. The protocol:
Male Wistar rats aged 7 weeks (SLC) were divided into several groups consisting of 5 rats. The test compound was dissolved at the concentration that became the administration volume as 2.5 ml/kg. The solution was administered through the tail vein at an infusion rate of 1 ml/minute. Observations were performed at constant intervals, and survival rate was judged for 24 hours.

[2] abbreviates: IC50, concentration showing 50 % inhibition of control, 10 minutes at 37 °C, pH 8.4, read-out: Inhibitory activity for thrombin.
The mark [3] stands for this setting: IC50, concentration showing 50 % inhibition of control, 10 minutes at 37 °C, pH 8.4, read-out: Inhibitory activity for activated blood coagulation factor X.

T2 sequence (P00742 235-488 limits assumed): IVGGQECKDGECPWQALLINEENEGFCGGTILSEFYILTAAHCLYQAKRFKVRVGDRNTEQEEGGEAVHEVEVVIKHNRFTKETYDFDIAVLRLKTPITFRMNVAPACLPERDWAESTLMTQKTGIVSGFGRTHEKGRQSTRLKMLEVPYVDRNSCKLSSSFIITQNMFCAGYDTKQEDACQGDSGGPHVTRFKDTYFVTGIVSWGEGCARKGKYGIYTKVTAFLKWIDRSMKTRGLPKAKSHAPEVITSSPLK
T2 sequence (P00742 41-179 partner limits assumed): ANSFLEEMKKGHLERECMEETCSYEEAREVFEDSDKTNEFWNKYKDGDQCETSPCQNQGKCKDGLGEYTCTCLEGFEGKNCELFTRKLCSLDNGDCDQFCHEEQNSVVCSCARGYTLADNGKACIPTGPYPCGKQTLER

Turning to `CC(=N)N1CCC(c2ccc(NC(=O)CN(Cc3cccc4ccccc34)c3cccc(C(=N)N)c3)cc2)CC1` [Compound 65, 2-[N-(3-Amidinophenyl)-N-(1-naphthylmethyl)amino]-N-[4-[1-(1-iminoethyl)piperidin-4-yl]phenyl]acetamide dihydrochloride], the IC50 was 42 µM at human thrombin (setting [2]) and 0.008 µM in data set [1] (setting [3]).
With `CC(=N)N1CCC(Oc2ccc(NC(=O)CN(Cc3ccccc3)c3cccc(C(=N)N)c3)cc2)CC1` [Compound 58, 2-[N-(3-Amidinophenyl)-N-benzylaminol-N-[4-[1-(1-imino-ethyl)piperidin-4-yloxy]phenyl]acetamidedihydrochloride], the IC50 on human thrombin was 100 µM; in data set [1], 0.042 µM. In the data set on normal human plasma, this compound had an Anticoagulation effect of 0.24 µM.
As to `CC(=N)N1CCC(c2ccc(NC(=O)CN(Cc3cccc(OCC(=O)O)c3)c3cccc(C(=N)N)c3)cc2)CC1.Cl.Cl` [Compound 62, 2-[N-(3-Amidinophenyl)-N-(3-carboxymethyloxybenzyl)amino]-N-[4-[1-(1-iminoethyl)piperidin-4-yl]phenyl]acetamide dihydrochloride], the IC50 at human thrombin (setting [2]) was 206 µM. This compound also had an Anticoagulation effect in the data set with normal human plasma of 0.21 µM. Further, the Death case with Male Wistar rats (30 mg/kg through the tail vein, groups of 5 rats, survival judged for 24 hours) was 0/5. Moreover, the “death in acute toxicity test” value in the data set with Male Wistar rats (rats, intravenous administration, dose of 30 mg/kg) is reported as “no death was observed”.
With `CC(=N)N1CCC(Oc2ccc(NC(=O)CNc3cccc(C(=N)N)c3)cc2)CC1` [Compound 79, 2-(3-Amidinophenylamino)-N-[4-[1-(1-iminoethyl)piperidin-4-yloxy]phenyl]acetamide dihydrochloride], the IC50 came to 308 µM at human thrombin (setting [2]) and 0.096 µM in data set [1] (setting [3]).
As for `CC(C)=CCN(CC(=O)Nc1ccc(OC(C)C)cc1)c1cccc(C(=N)N)c1.Cl` [Compound 22, 2-[N-(3-Amidinophenyl)-N-(3-methyl-2-butenyl)amino]-N-(4-isopropoxyphenyl)acetamide hydrochloride], the IC50 at human thrombin (setting [2]) amounted to 13 µM; in data set [1] (setting [3]), 0.015 µM. The compound further came in with an Anticoagulation effect in the data set with normal human plasma of 0.29 µM.
Turning to `CC(=N)N1CCC(c2ccc(NC(=O)CN(Cc3cccc(O)c3)c3cccc(C(=N)N)c3)cc2)CC1.Cl.Cl` [Compound 52, 2-[N-(3-Amidinophenyl)-N-(3-hydroxybenzyl)amino]-N-[4-[1-(1-iminoethyl)piperidin-4-yl]phenyl]acetamide dihydrochloride], the values for the IC50 (on human thrombin (setting [2]); in data set [1] (setting [3])) were 77 µM and 0.016 µM, respectively. Further, in the data set with normal human plasma, the Anticoagulation effect was found to be 0.17 µM.
Taken in the same sequence, the figures for `CC(=N)N1CCC(c2ccc(NC(=O)CN(Cc3nc[nH]c3C)c3cccc(C(=N)N)c3)cc2)CC1.Cl.Cl` [Compound 74, 2-[N-(3-Amidinophenyl)-N-(5-methylimidazol-4-ylmethyl)amino]-N-[4-[1-(1-iminoethyl)piperidin-4-yl]phenyl]acetamide dihydrochloride] were 177 µM, 0.019 µM and 0.30 µM.
Turning to `CC(=N)N1CCC(c2ccc(NC(=O)CN(CC=C(C)C)c3cccc(C(=N)N)c3)cc2)CC1.Cl.Cl` [Compound 55, 2-[N-(3-Amidinophenyl)-N-(3-methyl-2-butenyl)amino]-N-[4-[1-(1-iminoethyl)piperidin-4-yl]phenyl]acetamide dihydrochloride], the results for the IC50 (on human thrombin (setting [2]); in data set [1] (setting [3])) were 15 µM and 0.004 µM, respectively. The compound further yielded an Anticoagulation effect with normal human plasma of 0.091 µM.

The values above are taken from patent publication EP1020434A1, “3-AMIDINOANILINE DERIVATIVES, ACTIVATED BLOOD COAGULATION FACTOR X INHIBITORS, AND INTERMEDIATES FOR PRODUCING BOTH” (priority 1997, dated 1999).
